Experimental data: paper PMC3975428, “Dimers of G-Protein Coupled Receptors as Versatile Storage and Response Units” (International Journal of Molecular Sciences, 2014)
Values belong to the molecule of their own block, whether it stands above or below them.

Legend:
[1] = test system: 180 kDa heteropentamer (Y2 receptor dimer, G-protein trimer); test: Nucleotide labeling / conversion of 180 kDa heteropentamer to 90 kDa Gi3α-receptor monomer; assay type: biochemical
Procedure: (§1) The receptors were labeled for 30 min at 25 °C in respective particulates (50 μg protein/assay), employing not more than 50 pM [^125I]-labeled agonist peptides (as stated in individual experiments). Higher molar inputs of agonist peptides would produce significant Gα activation within short exposures (e.g., [24, 53]). The basal assay buffer contained 0.2% proteinase-free bovine serum albumin, 20 mM hepes.NaOH (pH 7.4), 1 mM diisopropylfluorophosphate, 0.04% bacitracin, and 10 μg/mL each of proteinase inhibitors aprotinin, bestatin, chymostatin, leupeptin and pepstatin. Depending on experiment design, this was supplemented by 3 mM CaCl2 and 1 mM MgCl2, (buffer A) or by 1 mM Na EDTA, pH 7.4 (buffer B). The nucleotide site labeling at 200 pM [^35S]GγS was for 30 min at 28 °C after pre-activation for 30 min at 28 °C at 3 μM GDP in the basal buffer with 50 μM EDTA, 100 mM NaCl and 4 mM MgCl2, and without CaCl2 (buffer C). All subsequent operations were carried out at 0–5 °C. The assays were terminated by sedimentation for 10 min at 30,000× gmax, followed by surface wash of the pellets.
(§2) Rabbit kidney postmitochondrial particulates, rabbit piriform cortex and hypothalamic crude synaptosomes and CHO cell postnuclear particulates were prepared as described previously. After solubilization of particulates at 10 mM each of digitonin and sodium cholate in buffer A or B, the lysates were spun for 10 min at 1000× g to remove debris, and the supernatants sedimented for periods indicated in figure captions at 218,000× gmax through linear 5%–20% sucrose gradients (10 mL, made in buffer A). The gradients were divided by bottom dripping in 23 fractions of 0.45 mL. The sedimentation positions were calibrated with [^125I]-labeled bovine γ-globulin (158 kDa), human iron-saturated transferrin (75 kDa) and ovalbumin (44 kDa), and with colorized myosin (211 kDa), producing a linear relation of migration to molecular weight (R^2 > 0.99). […]

[2] = test system: aggregated Y2 receptor material (rabbit kidney and CHO-Y2 particulates); test: Release of aggregated Y2 receptor material (bottom of 5%–20% gradients); assay type: biochemical; details: 20 μM
Procedure: More than 30% of the Y2 binding in rabbit kidney postmitochondrial particulates, and more than 20% in the CHO-Y2 postnuclear particulates sediments to the bottom of 5%–20% sucrose gradients over 18 h at 218,000× gmax, corresponding to weight in excess of 1000 kDa. A large part of this material sediments at 30,000× gmax over 10 min, and could be considered as aggregated. […] This preliminary experiment points to potential of such procedures in quantitation of effector-associated receptors at the level of dimers and monomers. There also is a promise of gaining more insight on the size and significance of receptor oligomers incorporating more than two receptor monomers.
(§3) Rabbit kidney postmitochondrial particulates, rabbit piriform cortex and hypothalamic crude synaptosomes and CHO cell postnuclear particulates were prepared as described previously. After solubilization of particulates at 10 mM each of digitonin and sodium cholate in buffer A or B, the lysates were spun for 10 min at 1000× g to remove debris, and the supernatants sedimented for periods indicated in figure captions at 218,000× gmax through linear 5%–20% sucrose gradients (10 mL, made in buffer A). The gradients were divided by bottom dripping in 23 fractions of 0.45 mL. The sedimentation positions were calibrated with [^125I]-labeled bovine γ-globulin (158 kDa), human iron-saturated transferrin (75 kDa) and ovalbumin (44 kDa), and with colorized myosin (211 kDa), producing a linear relation of migration to molecular weight (R^2 > 0.99).

G-protein α subunit = test: Stability of GγS labeling; assay type: biochemical; details: 4 °C
Procedure: as §1

[3] = test system: Y2 receptor aggregates (rabbit kidney); test: Y2 receptor aggregates, sedimentation after treatment, rabbit kidney particulates; assay type: biochemical; details: 15 min at 24 °C
Procedure: (§4) Figure 5. […] Particulates from rabbit kidney (A) and anterior hypothalamus (B) were incubated with 20 μM GγS or 10 μM U73122 for 15 min at 24 °C, sedimented, resuspended, labeled with 50 pM [^125I]hPYY(3–36) for 15 min at 24 °C, resedimented, lysed at 10 mM each digitonin and cholate and sedimented through a 10%–30% linear sucrose gradient for 6 h at 218,000× g and 5 °C, followed by gradient fractionation and counting. TEXT PRINTED IN THE PICTURE: (A) GγS: Bottom count: 10.8% | (A) U73122: Bottom count: 25.4% | (B) GγS: Bottom count: 8.98 % | (B) U73122: Bottom count: 17.4 %
as §3

[4] = test system: Y2 receptor aggregates (anterior hypothalamus); test: Y2 receptor aggregates, sedimentation after treatment, rabbit anterior hypothalamus particulates; assay type: biochemical; details: 20 μM, 15 min at 24 °C, 10%–30% gradient 6 h at 218,000× g
Procedure: as §4
as §2, with “mL.” for “mL. The sedimentation positions were calibrated with [^125I]-labeled bovine γ-globulin (158 kDa), human iron-saturated transferrin (75 kDa) and ovalbumin (44 kDa), and with colorized myosin (211 kDa), producing a linear relation of migration to molecular weight (R^2 > 0.99).”

CHO-Y1 dimers = details: ADP-ribosylation of Gi type α subunits; cited from earlier work
Excerpt: (§5) This could be of interest in many physiological conditions. The loss of CHO-Y1 and CHO-Y2 dimers due to neutralization of Gi type α subunits through ADP-ribosylation by pertussis toxin [16, 29] could be viewed as a constitutive equivalent of the reduction shown in Figure 4. In conditions of normal Gi utilization in CHO-Y2, the di ...

CHO-Y2 dimers = details: ADP-ribosylation of Gi type α subunits; cited from earlier work
Excerpt: as §5

NPY receptor dimers = details: via ADP-ribosylation of Gαi subunits; cited from earlier work
Excerpt: The virtues of oligomerization for GPCRs are many. Oligomers would have much larger ability than monomers to anchor to the membranes, rafts and vesicles. Protein (including the receptor) removal by particulate (proteasomal and/or lysosomal) proteolysis is found to be much less for dimers compared to monomers, as is also observed for enzyme carriers. This is dramatically confirmed by elimination of NPY receptor dimers by pertussis toxin via ADP-ribosylation of Gαi subunits. Association with transducers and effectors could also be enhanced for the dimers. Chances ...

[5] = test system: 180 kDa heteropentamer and 90 kDa monomer-Gi α of Y2 receptor; details: 10 mM CHAPS, cited from earlier work
Excerpt: The stability and affinity of agonist association with CHO-Y2 receptors could also be analyzed at the level of dimers and monomers by extraction and precipitation procedures coupled to competition binding assays (Figure 6). […] The 180 kDa labeled material is not sensitive to ...

[6] = test system: neuropeptide Y (NPY) receptor dimers; details: cited from earlier work
Excerpt: The most studied and probably the most frequent complexes of eukaryotic heptahelical receptors are those with G-protein αβγ heterotrimers. With many GPCR dimers these assemblies survive solubilization by steroid detergents such as digitonin and cholate and could be detected as ~180 kDa heteropentamers by density gradient centrifugation ([15, 16]; see also Figure 1 in this study) and also can be solubilized by acylamine oxide surfactants such as lauryldimethylamine oxide (LDAO) and detected by circular dichroism spectroscopy. The frequently used zwitterionic detergents, e.g., CHAPS (3 ...

[7] = test system: Y2 receptor dimers (CHO cells); test: Dimer content of Y2 receptors labeled by [^125I]PYY(3–36) in density gradients; assay type: binding, human receptor in CHO cells; details: duplicate gradients; for dimer content: labeled 30 min at 25 °C; for content of dimer: particulates from CHO cells, labeled 20 min at 27 °C
Procedure: Figure 1. Stability of agonist-labeled Y2 receptor dimers to incubation at 27 °C and to removal of divalent cations. Duplicate 5%–20% gradients (see Section 3.3) were centrifuged for 18 h at 5 °C. All results are average percentages of total counts in the corresponding gradient fractions from two gradients for each condition. The respective standard errors were in most cases below 10%, and for clarity are not shown. (A) Y2 receptor dimers in particulates from CHO cells are stable to incubation at 27 °C. The incubation of particulate suspension in the assay buffer at 27 °C was for 1 h (followed by 2 h at 0–4 °C) or 3 h, while the control suspension was incubated in ice for 3 h. […] The content of dimer, in % total gradient counts, was 66.2 ± 3.7 for 4 °C control, 63.4 ± 3.4 after preincubation for 1 h at 27 °C, and 64.3 ± 3.4 after preincubation for 3 h at 27 °C; (B) Y2 receptor dimers are not disbanded by removal of divalent cations.
as §1, with “Higher” for “The receptors were labeled for 30 min at 25 °C in respective particulates (50 μg protein/assay), employing not more than 50 pM [^125I]-labeled agonist peptides (as stated in individual experiments). Higher”
as §3

[8] = test system: Y2 receptor (hypothalamic particulates); test: Rundown of Y2 agonist tracer, anterior hypothalamus; assay type: biochemical, rabbit; details: 50 pM, 60 min at 25 °C, Ca^2+/Mg^2+ buffer
Excerpt: (§6) Figure 2. Rundown of the Y2 agonist is much faster in tissues with large Gi/o content. […] The rabbit kidney cortex has a much lower expression of Gi/o subunits than the anterior hypothalamus (The Bmax for [^35S]GγS binding is more than 20-fold higher in hypothalamic tissue (ref. [24], Table 2). However, the kidney Y2 receptor is expressed at about four times the level of the hypothalamic. The above parameters in the Ca^2+/Mg^2+ buffer lead to a much faster transduction with hypothalamic particulates (graph A); and a considerable (58%) rundown of the tracer peptide relative to 1 mM EDTA buffer. In the same assay, the relative rundown is only 12% with kidney particulates (graph B).
as §1, with “The nucleotide site labeling at 200 pM [^35S]GγS was for 30 min at 28 °C after pre-activation for 30 min at 28 °C at 3 μM GDP in the basal buffer with 50 μM EDTA, 100 mM NaCl and 4 mM MgCl2, and without CaCl2 (buffer C). All subsequent operations were carried out at 0–5 °C. The assays were terminated by sedimentation for 10 min at 30,000× gmax, followed by surface wash of the pellets.” left out

[9] = test system: Y2 receptor (rabbit kidney cortex particulates); test: Rundown of Y2 agonist tracer, kidney cortex; assay type: biochemical; details: 50 pM, 60 min at 25 °C, Ca^2+/Mg^2+ buffer
Excerpt: as §6
Higher molar inputs of agonist peptides would produce significant Gα activation within short exposures (e.g., [24, 53]). The basal assay buffer contained 0.2% proteinase-free bovine serum albumin, 20 mM hepes.NaOH (pH 7.4), 1 mM diisopropylfluorophosphate, 0.04% bacitracin, and 10 μg/mL each of proteinase inhibitors aprotinin, bestatin, chymostatin, leupeptin and pepstatin. Depending on experiment design, this was supplemented by 3 mM CaCl2 and 1 mM MgCl2, (buffer A) or by 1 mM Na EDTA, pH 7.4 (buffer B). […]

[10] = test system: rabbit kidney Y2 receptor; test: PYY(3–36) binding to rabbit kidney Y2 receptor (heteropentamer and monomer forms); details: rabbit kidney particulates, digitonin and cholate lysis
Procedure: The receptors were labeled for 30 min at 25 °C in respective particulates (50 μg protein/assay), employing not more than 50 pM [^125I]-labeled agonist peptides (as stated in individual experiments). […] The basal assay buffer contained 0.2% proteinase-free bovine serum albumin, 20 mM hepes.NaOH (pH 7.4), 1 mM diisopropylfluorophosphate, 0.04% bacitracin, and 10 μg/mL each of proteinase inhibitors aprotinin, bestatin, chymostatin, leupeptin and pepstatin. Depending on experiment design, this was supplemented by 3 mM CaCl2 and 1 mM MgCl2, (buffer A) or by 1 mM Na EDTA, pH 7.4 (buffer B). The nucleotide site labeling at 200 pM [^35S]GγS was for 30 min at 28 °C after pre-activation for 30 min at 28 °C at 3 μM GDP in the basal buffer with 50 μM EDTA, 100 mM NaCl and 4 mM MgCl2, and without CaCl2 (buffer C). All subsequent operations were carried out at 0–5 °C. The assays were terminated by sedimentation for 10 min at 30,000× gmax, followed by surface wash of the pellets.

Gi/o subunits = details: hypothalamic vs. rabbit kidney cortex; Table 2; cited from earlier work
Excerpt: Figure 2. Rundown of the Y2 agonist is much faster in tissues with large Gi/o content. […] The rabbit kidney cortex has a much lower expression of Gi/o subunits than the anterior hypothalamus (The Bmax for [^35S]GγS binding is more than 20-fold higher in hypothalamic tissue (ref. [24], Table 2). However, the kidney Y2 receptor is expressed at about four times the level of the hypothalamic. The above parameters in the Ca^2+/Mg^2 ...

labeling of G-protein trimer in 180 kDa heteropentamer [1]: not labeled | part of aggregated material released [2]: A considerable part | main form yielded from Y2 receptor aggregates ([3]; particulates from rabbit tissues (kidney and anterior hypothalamus), GγS 20 μM or U73122 10 μM): mainly Gi-Y2 monomer | Bottom count ([3]; rabbit kidney, 20 μM, 10%–30% gradient 6 h at 218,000× g): 10.8% | Bottom count [4]: 8.98%
Molecule: Nc1nc2c(ncn2[C@@H]2O[C@H](COP(=O)(O)OP(=O)(O)OP(O)(O)=S)[C@@H](O)[C@H]2O)c(=O)[nH]1 [GγS, Guanosine 5′-O-(γ-thiotriphosphate)]
conversion of 180 kDa heteropentamer ([1]; 1–5 mM Mg^2+, micromolar GDP or GγS): does convert to immunoprecipitable 90 kDa Gi3α-receptor monomer | form of released material [2]: largely in the form of activated monomers | stability of G-protein α subunit labeling (G-protein α subunit): stable at 4 °C

Molecule: pertussis toxin
effect on CHO-Y1 dimers (CHO-Y1 dimers): loss | effect on CHO-Y2 dimers (CHO-Y2 dimers): loss | effect on NPY receptor dimers (NPY receptor dimers): elimination

Molecule: C[C@H](CCC(=O)NCCC[N+](C)(C)CCCS(=O)(=O)[O-])[C@H]1CC[C@H]2[C@@H]3[C@H](O)C[C@@H]4C[C@H](O)CC[C@]4(C)[C@H]3C[C@H](O)[C@]12C [CHAPS, 3-[3-cholamidopropyldimethylammonio]-1-propanesulfonate]
sensitivity of 180 kDa binding ([5]; relative to 90 kDa zone): much less sensitive | effect on 90 kDa zone agonist binding [5]: completely dissociates | effect on NPY receptor dimers [6]: tend to destabilize

rundown of the tracer peptide relative to 1 mM EDTA buffer [8]: 58% | rundown of the tracer peptide relative to 1 mM EDTA buffer [9]: 12% | degradation of the receptor-bound tracer [10]: very low
Molecule: [^125I]PYY(3–36): Monoiodinated HPLC-purified [^125I]human PYY(3–36), labeled Y2 agonist
dimer content ([7]; buffer A (3 mM CaCl2, 1 mM MgCl2)): 65.9 ± 4.7 % gradient counts | dimer content ([7]; buffer B (1 mM Na EDTA, divalent cations removed)): 60.8 ± 4.6 % gradient counts | content of dimer ([7]; 4 °C control (3 h in ice)): 66.2 ± 3.7 % total gradient counts | content of dimer ([7]; preincubation 1 h at 27 °C (then 2 h at 0–4 °C)): 63.4 ± 3.4 % total gradient counts | content of dimer ([7]; preincubation 3 h at 27 °C): 64.3 ± 3.4 % total gradient counts

Molecule: Nc1nc2c(ncn2C2OC(COP(=O)(O)OP(=O)(O)OP(O)(O)=[35S])C(O)C2O)c(=O)[nH]1 (centres unmarked) [[^35S]GγS, [^35S]guanosine 5′-(γ-thio)triphosphate]
Bmax for binding, hypothalamic relative to kidney tissue (Gi/o subunits): more than 20 fold
